Counter-ions that a name gives are not always drawn.
molecular target: T1, CXCR7 (Homo sapiens, UniProt P25106); assay: PathHunter CHO-K1 CXCR7 b-arrestin recruitment assay (CXCR7 agonistic activity); assay type: cell-based; details: PathHunter CHO-K1 CXCR7 b-arrestin cell line
T1 construct: host or cells: CHO-K1 (PathHunter CHO-K1 CXCR7 b-arrestin cell line, stably transfected)
How it was run: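 Stable CHO-K1 line with C-terminally ProLink-tagged CXCR7 and β-arrestin 2–EA fusion; β-arrestin recruitment restores β-gal activity, read by chemiluminescence after 1 h RT detection. Cells seeded 24 h, starved in OPTIMEM 3–4 h, exposed to compounds 90 min at 37 °C in HBSS/HEPES/BSA. Geometric-mean EC50 from repeated measurements.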

T1 sequence (P25106 whole entry): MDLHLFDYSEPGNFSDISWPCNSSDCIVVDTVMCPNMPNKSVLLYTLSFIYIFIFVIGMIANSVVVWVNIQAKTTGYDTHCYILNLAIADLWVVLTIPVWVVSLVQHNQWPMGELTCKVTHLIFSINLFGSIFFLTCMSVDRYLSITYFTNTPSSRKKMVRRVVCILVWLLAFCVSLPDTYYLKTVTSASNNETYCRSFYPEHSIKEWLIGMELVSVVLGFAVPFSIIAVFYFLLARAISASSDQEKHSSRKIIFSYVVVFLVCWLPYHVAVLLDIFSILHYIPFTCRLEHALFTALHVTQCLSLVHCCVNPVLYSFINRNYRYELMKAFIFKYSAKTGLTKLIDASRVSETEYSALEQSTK
T1 sequence (P32121 whole entry partner): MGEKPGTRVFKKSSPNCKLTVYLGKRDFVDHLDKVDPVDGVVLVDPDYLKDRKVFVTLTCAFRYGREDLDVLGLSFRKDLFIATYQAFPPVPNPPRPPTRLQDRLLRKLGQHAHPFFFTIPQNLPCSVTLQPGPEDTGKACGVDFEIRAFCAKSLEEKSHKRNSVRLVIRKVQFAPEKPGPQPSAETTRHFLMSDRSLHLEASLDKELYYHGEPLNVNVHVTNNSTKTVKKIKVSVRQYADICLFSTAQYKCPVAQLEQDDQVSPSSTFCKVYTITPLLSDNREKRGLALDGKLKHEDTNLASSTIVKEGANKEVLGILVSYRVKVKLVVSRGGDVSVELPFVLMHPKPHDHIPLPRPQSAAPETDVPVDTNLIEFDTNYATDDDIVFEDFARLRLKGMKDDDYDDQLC

Point of comparison: `CCCC(=O)N1CCc2c(cccc2NCC(=O)N(CCNC)Cc2ccccc2C(F)(F)F)C1` [compound 386, 2-(2-Butyryl-1,2,3,4-tetrahydro-isoquinolin-5-ylamino)-N-(2-methylamino-ethyl)-N-(2-trifluoromethyl-benzyl)-acetamide], EC50 12 nM. Against it:
- CNCCN(Cc1ccccc1C(F)(F)F)C(=O)CNc1cccc2c1CCN(C(=O)C1CCOC1)C2 (racemic) [compound 392] — 2.5-fold higher, 30 nM
- O=C(CNc1cccc2c1CCN(CC1CC1)C2)N(CCN1CCCC(F)(F)C1)Cc1ccccc1C(F)(F)F [Example 281, 2-(2-Cyclopropylmethyl-1,2,3,4-tetrahydro-isoquinolin-5-ylamino)-N-[2-(3,3-difluoro-piperidin-1-yl)-ethyl]-N-(2-trifluoromethyl-benzyl)-acetamide] — 3.6-fold higher, 43 nM
- CCN1Cc2c(cccc2NCC(=O)N(CCN(C)C)Cc2ccccc2C(F)(F)F)CC1=O [compound 543] — 7-fold higher, 84 nM
- CCOC(=O)CN(Cc1ccccc1)C(=O)/C=C/c1cccc2c1CCN(CC1CC1)C2 [compound 144, {Benzyl-[(E)-3-(2-cyclopropylmethyl-1,2,3,4-tetrahydro-isoquinolin-5-yl)-acryloyl]-amino}-acetic acid ethyl ester] — 1.8-fold higher, 22 nM
- CN(C)CCN(CCc1ccc(C(F)(F)F)cc1)C(=O)CNc1cccc2c1CCN(CC1CC1)C2 [Example 56, 2-(2-Cyclopropylmethyl-1,2,3,4-tetrahydro-isoquinolin-5-ylamino)-N-(2-dimethylamino-ethyl)-N-[2-(4-trifluoromethyl-phenyl)-ethyl]-acetamide] — 5.8-fold higher, 70 nM
- CN(C)CCN(Cc1ncccc1Br)C(=O)CNc1cccc2c1CCN(CC1CC1)C2 [Example 236, N-(3-Bromo-pyridin-2-ylmethyl)-2-(2-cyclopropylmethyl-1,2,3,4-tetrahydro-isoquinolin-5-ylamino)-N-(2-dimethylamino-ethyl)-acetamide] — 4-fold lower, 3 nM
- C=CCN(C)CCN(Cc1ccccc1C(F)(F)F)C(=O)CNc1cccc2c1CN(CC=C)CC2 [compound 463, N-[2-(Allyl-methyl-amino)-ethyl]-2-(2-allyl-1,2,3,4-tetrahydro-isoquinolin-8-ylamino)-N-(2-trifluoromethyl-benzyl)-acetamide] — within 1.5-fold, 16 nM
- CC(C)(C)OC(=O)N1CCC(CN(Cc2ccccc2C(F)(F)F)C(=O)CNc2cccc3c2CCN(CC2CC2)C3)C1 (centres unmarked) [Example 253, 3-{[[2-(2-Cyclopropylmethyl-1,2,3,4-tetrahydro-isoquinolin-5-ylamino)-acetyl]-(2-trifluoromethyl-benzyl)-amino]-methyl}-pyrrolidine-1-carboxylic acid tert-butyl ester] — 3.5-fold higher, 42 nM
- NC(=O)CCN(Cc1ccccc1)C(=O)/C=C/c1cccc2c1CCN(CC1CC1)C2 [Example 140, (E)-N-Benzyl-N-(2-carbamoyl-ethyl)-3-(2-cyclopropylmethyl-1,2,3,4-tetrahydro-isoquinolin-5-yl)-acrylamide dihydrochloride] — 4.5-fold higher, 54 nM
- CN(C)CCN(Cc1ccccc1C(F)(F)F)C(=O)CNc1cccc2c1CCN(CC1CCC1)C2 [Example 361, 2-(2-Cyclobutylmethyl-1,2,3,4-tetrahydro-isoquinolin-5-ylamino)-N-(2-dimethylamino-ethyl)-N-(2-trifluoromethyl-benzyl)-acetamide] — 2-fold lower, 6 nM
- CNCCN(Cc1ccccc1C(F)(F)F)C(=O)CNc1cccc2c1CCN(CC1CC1)C2 [Example 179, 2-(2-Cyclopropylmethyl-1,2,3,4-tetrahydro-isoquinolin-5-ylamino)-N-(2-methylamino-ethyl)-N-(2-trifluoromethyl-benzyl)-acetamide] — 4-fold lower, 3 nM
- CN(C)CCN(Cc1ccc(Br)cc1)C(=O)CNc1cccc2c1CCN(CC1CC1)C2 [Example 238, N-(4-Bromo-benzyl)-2-(2-cyclopropylmethyl-1,2,3,4-tetrahydro-isoquinolin-5-ylamino)-N-(2-dimethylamino-ethyl)-acetamide] — 3.6-fold higher, 43 nM
- NC(=O)CCN(Cc1ccccc1)C(=O)CNc1cccc2c1CCN(CC1CC1)C2 [Example 68, 3-{Benzyl-[2-(2-cyclopropylmethyl-1,2,3,4-tetrahydro-isoquinolin-5-ylamino)-acetyl]-amino}-propionamide] — 28-fold higher, 330 nM
- CNCCN(Cc1ccccc1C(F)(F)F)C(=O)CNc1cccc2c1CCN(CC1CC1)C2C (racemic) [compound 382] — 1.5-fold lower, 8 nM
- CCS(=O)(=O)N1CCc2c(cccc2NCC(=O)N(CCN(C)C)Cc2ccccc2C(F)(F)F)C1 [Example 103, N-(2-Dimethylamino-ethyl)-2-(2-ethanesulfonyl-1,2,3,4-tetrahydro-isoquinolin-5-ylamino)-N-(2-trifluoromethyl-benzyl)-acetamide] — 8.1-fold higher, 97 nM
- CN(C)CCN(Cc1ncccc1Br)C(=O)CNc1cccc2c1CN(C1CCC1)CC2 [compound 456, N-(3-Bromo-pyridin-2-ylmethyl)-2-(2-cyclobutyl-1,2,3,4-tetrahydro-isoquinolin-8-ylamino)-N-(2-dimethylamino-ethyl)-acetamide] — 1.5-fold lower, 8 nM
- O=C(CNc1cccc2c1CCN(C(=O)[C@@H]1C[C@@H]1F)C2)N(Cc1ccccc1C(F)(F)F)CC1(O)CCCC1 (racemic) [Example 372, rac-2-[2-((1S*,2S*)-2-Fluoro-cyclopropanecarbonyl)-1,2,3,4-tetrahydro-isoquinolin-5-ylamino]-N-(1-hydroxy-cyclopentylmethyl)-N-(2-trifluoromethyl-benzyl)-acetamide] — 23-fold higher, 271 nM
- Cc1cccc(CN(C(=O)/C=C/c2cccc3c2CCN(CC2CC2)C3)C2CC2)c1C [compound 141] — 8.2-fold higher, 98 nM
- CC(C)(O)CN(Cc1ncccc1Br)C(=O)CNc1cccc2c1CN(C1CCC1)CC2 [compound 458] — 9.1-fold higher, 109 nM
- CN(C)CCN(Cc1ccccc1C(F)(F)F)C(=O)CNc1cccc2c1CCN(c1ccccc1)C2 [Example 373, N-(2-Dimethylamino-ethyl)-2-(2-phenyl-1,2,3,4-tetrahydro-isoquinolin-5-ylamino)-N-(2-trifluoromethyl-benzyl)-acetamide] — 5.6-fold higher, 67 nM
- CCC(=O)N1CCc2cccc(NCC(=O)N(CCN(C)C)Cc3ccccc3)c2C1 [Example 188, N-Benzyl-N-(2-dimethylamino-ethyl)-2-(2-propionyl-1,2,3,4-tetrahydro-isoquinolin-8-ylamino)-acetamide] — 5.9-fold higher, 71 nM
- CCN1CCc2cccc(NCC(=O)N(CCC3CCCN3C)Cc3ccccc3)c2C1 (racemic) [compound 508] — 2.8-fold higher, 34 nM
- CN(C)CCN(Cc1ccccc1)C(=O)CCc1cccc2c1CCN(CC1CC1)C2 [compound 161, N-Benzyl-3-(2-cyclopropylmethyl-1,2,3,4-tetrahydro-isoquinolin-5-yl)-N-(2-dimethylamino-ethyl)-propionamide] — 3-fold lower, 4 nM
- CCOC(=O)N1CCc2c(cccc2NCC(=O)N(CCNC)Cc2ncccc2C(F)(F)F)C1 [compound 420, 5-({[(2-Methylamino-ethyl)-(3-trifluoromethyl-pyridin-2-ylmethyl)-carbamoyl]-methyl}-amino)-3,4-dihydro-1H-isoquinoline-2-carboxylic acid ethyl ester] — 1.8-fold higher, 21 nM
- O=C(CNc1cccc2c1CCN(CC1CC1)C2)N(Cc1ccccc1C(F)(F)F)C1CCOCC1 [Example 74, 2-(2-Cyclopropylmethyl-1,2,3,4-tetrahydro-isoquinolin-5-ylamino)-N-(tetrahydro-pyran-4-yl)-N-(2-trifluoromethyl-benzyl)-acetamide] — 4.1-fold higher, 49 nM
- CN(C)CCN(Cc1nccs1)C(=O)CNc1cccc2c1CCN(CC1CC1)C2 [Example 265, 2-(2-Cyclopropylmethyl-1,2,3,4-tetrahydro-isoquinolin-5-ylamino)-N-(2-dimethylamino-ethyl)-N-thiazol-2-ylmethyl-acetamide] — 4-fold higher, 48 nM
- COc1ccc2c(c1NCC(=O)N(CCN(C)C)Cc1ccccc1C(F)(F)F)CCN(CC1CC1)C2 [Example 89, 2-(2-Cyclopropylmethyl-6-methoxy-1,2,3,4-tetrahydro-isoquinolin-5-ylamino)-N-(2-dimethylamino-ethyl)-N-(2-trifluoromethyl-benzyl)-acetamide] — 1.5-fold lower, 8 nM
- O=C(CNc1cccc2c1CCN(CC1CC1)C2)N(CCN1CCC(F)(F)CC1)Cc1ncccc1Cl [Example 249, N-(3-Chloro-pyridin-2-ylmethyl)-2-(2-cyclopropylmethyl-1,2,3,4-tetrahydro-isoquinolin-5-ylamino)-N-[2-(4,4-difluoro-piperidin-1-yl)-ethyl]-acetamide] — the same, 12 nM
- CC(C)CN1CCc2cccc(NCC(=O)N(CCN(C)C)Cc3ccccc3C(F)(F)F)c2C1 [compound 557, N-(2-Dimethylamino-ethyl)-2-(2-isobutyl-1,2,3,4-tetrahydro-isoquinolin-8-ylamino)-N-(2-trifluoromethyl-benzyl)-acetamide] — 2.4-fold lower, 5 nM
- CN(CCN(Cc1ccccc1C(F)(F)F)C(=O)CNc1cccc2c1CCN(CC1CC1)C2)C1CC1 [Example 220, N-[2-(Cyclopropyl-methyl-amino)-ethyl]-2-(2-cyclopropylmethyl-1,2,3,4-tetrahydro-isoquinolin-5-ylamino)-N-(2-trifluoromethyl-benzyl)-acetamide] — 4-fold lower, 3 nM
- CC(C)N1CCc2cccc(NCC(=O)N(CCN(C)C)Cc3ccccc3)c2C1 [compound 186] — 7.6-fold higher, 91 nM
- CN(C)CCN(Cc1ccccc1C(F)(F)F)C(=O)CNc1cccc2c1CCN(CCF)C2 [Example 286, N-(2-Dimethylamino-ethyl)-2-[2-(2-fluoro-ethyl)-1,2,3,4-tetrahydro-isoquinolin-5-ylamino]-N-(2-trifluoromethyl-benzyl)-acetamide] — 3.1-fold higher, 37 nM
- COCCN1CCc2c(CCC(=O)N(CCN(C)CCF)Cc3ccccc3C(F)(F)F)cccc2C1 [Example 342, N-{2-[(2-Fluoro-ethyl)-methyl-amino]-ethyl}-3-[2-(2-methoxy-ethyl)-1,2,3,4-tetrahydro-isoquinolin-5-yl]-N-(2-trifluoromethyl-benzyl)-propionamide] — 9.2-fold higher, 110 nM
- CNCCN(Cc1ncccc1C(F)(F)F)C(=O)CNc1cccc2c1CCN(C(=O)OCC(C)C)C2 [compound 426] — 6.2-fold higher, 74 nM

Source: patent publication US9920010B2, “CXCR7 receptor modulators” (IDORSIA PHARMACEUTICALS LTD, priority 2013, dated 2018)
